In patent US20130059824A1, “METHODS FOR TREATING MILD COGNITIVE IMPAIRMENT” (AFRAXis, Inc., priority 2009, published 2013):

Experiments:
[1] = system: C57/black 6 mice temporal cortex slices; assay: Slice electrophysiology assay (LTP in cortical slices); type: cell-based; conditions: 1 μM compound; theta-burst stimulation protocol; temporal cortex slices of C57/black 6 mice
Procedure: Materials: coronal cortical slices (400 μam) containing temporal cortex from 2- to 3-month-old C57-Black-6 mice male littermates (from Elevage Janvier, FRANCE) are prepared and allowed to recover in oxygenated (95% O2 and 5% CO2) warm (30° C.) artificial cerebrospinal fluid (ACSF) containing 124 mM NaCl, 5 mM KCl, 1.25 mM, NaH2PO4, 1 mM MgCl2, 2 mM CaCl2, 26 mM NaHCO3, and 10 mM dextrose.
Compound dilution: a 10 mM DMSO stock solution is prepared for each test compound and 100 μL aliquots are stored at −20° C. On the day of experiment an aliquot is thawed and vortexed for fresh solutions preparation. […]
LTP: a stimulus is applied every 30 s with an intensity settled at 40% of the maximal amplitude responses. […] Potentiation of synaptic transmission is then monitored for an additional 40 minutes period. […]
Compound evaluation: following a 10 minutes control recording period (to verify baseline stability), the compound is perfused for 20 minutes. Then, LTP is triggered and the fEPSP amplitude will be recorded for an additional 40 minutes period in the presence of compound.
Data analysis: fEPSP amplitudes are measured as the difference between the baseline (before stimulation) and the maximal peak amplitude. The fEPSP are normalized as a percent of the mean averaged amplitude recorded over a 10 min control period, before compound application. […]

PAK1 = PAK1 (Homo sapiens, UniProt Q13153); assay: Z'Lyte fluorescence-based (FRET) kinase assay, PAK1; type: biochemical; conditions: 50 μM ATP (Km apparent), 1 hr room temperature
PAK1, sequence (Q13153 whole entry): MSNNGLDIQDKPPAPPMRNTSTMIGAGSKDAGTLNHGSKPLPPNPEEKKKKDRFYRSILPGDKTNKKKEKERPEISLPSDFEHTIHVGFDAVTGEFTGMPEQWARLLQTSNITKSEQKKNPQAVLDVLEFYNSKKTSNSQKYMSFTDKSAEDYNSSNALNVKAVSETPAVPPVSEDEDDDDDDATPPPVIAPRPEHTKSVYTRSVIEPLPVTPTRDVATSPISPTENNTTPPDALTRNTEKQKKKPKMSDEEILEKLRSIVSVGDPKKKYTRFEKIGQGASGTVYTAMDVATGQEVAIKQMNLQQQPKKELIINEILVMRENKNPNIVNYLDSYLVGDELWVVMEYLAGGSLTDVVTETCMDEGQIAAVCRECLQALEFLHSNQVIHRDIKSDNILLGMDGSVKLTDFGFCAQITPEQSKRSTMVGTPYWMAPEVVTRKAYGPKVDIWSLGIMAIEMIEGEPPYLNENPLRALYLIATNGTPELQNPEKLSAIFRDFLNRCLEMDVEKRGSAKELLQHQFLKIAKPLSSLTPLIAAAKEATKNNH
Procedure: (§1) A fluorescence-based assay format is used to determine IC50 values of test compounds in vitro. Purified PAK kinase is incubated with ATP, and a test compound at various concentrations and a substrate peptide containing two fluorophores. In a second step, the reaction mix is incubated with a site-specific protease that cleaves non-phosphorylated but not phosphorylated substrate peptide, disrupting the FRET signal generated by the two fluorophores in the cleaved peptide (Z'Lyte™ Kinase assay platform; Life Technologies).
(§2) Reagents: 50 mM HEPES, pH 7.5; 0.01% BRIJ-35; 10 mM MgCl2; 1 mM EGTA, 2 uM substrate peptide Ser/Thr20 (proprietary Life Technologies Sequence), PAK enzyme [2.42-30.8 ng for PAK1, 0.29-6 ng for PAK2, 1.5-20 ng for PAK3 and 0.1-0.86 ng for PAK4; actual enzyme amounts depend on lot activity of the enzyme preparation]
(§3) Test compounds are dissolved in DMSO at various concentrations; the final DMSO concentration in the assay reaction is 1%.
(§4) ATP concentration at Km apparent is used in the assay [50 ? M ATP for PAK1 assay, 75 ? […]
(§5) Plates are analyzed in a standard fluorescence plate reader (Tecan or equivalent) using an excitation wavelength of 400 nm and emission wavelengths of 445 nm and 520 nm Inhibition of kinase reaction is determined by emission ratio=emission@ 445 nm/emission@ 520 nm

PAK2 = PAK2 (Homo sapiens, UniProt Q13177); assay: Z'Lyte fluorescence-based (FRET) kinase assay, PAK2; type: biochemical; conditions: 75 μM ATP (Km apparent), 1 hr room temperature
PAK2, sequence (Q13177 whole entry): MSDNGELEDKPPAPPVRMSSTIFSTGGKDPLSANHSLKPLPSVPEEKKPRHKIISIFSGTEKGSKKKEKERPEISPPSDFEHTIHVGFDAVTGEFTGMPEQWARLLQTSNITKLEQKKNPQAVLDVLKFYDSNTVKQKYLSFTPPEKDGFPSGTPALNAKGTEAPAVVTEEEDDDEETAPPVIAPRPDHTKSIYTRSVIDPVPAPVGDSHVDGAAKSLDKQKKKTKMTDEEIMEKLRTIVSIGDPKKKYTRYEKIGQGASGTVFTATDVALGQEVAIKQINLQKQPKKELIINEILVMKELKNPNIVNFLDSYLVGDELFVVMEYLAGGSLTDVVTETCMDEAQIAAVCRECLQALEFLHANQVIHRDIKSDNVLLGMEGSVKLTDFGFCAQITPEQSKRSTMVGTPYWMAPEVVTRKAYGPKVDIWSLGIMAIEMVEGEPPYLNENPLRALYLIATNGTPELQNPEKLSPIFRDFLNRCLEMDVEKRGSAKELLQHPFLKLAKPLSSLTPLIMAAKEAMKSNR
Procedure: as §1, §2, §3, §4, §5

PAK3 = PAK3 (Homo sapiens, UniProt O75914); assay: Z'Lyte fluorescence-based (FRET) kinase assay, PAK3; type: biochemical; conditions: 100 μM ATP (Km apparent), 1 hr room temperature
PAK3, sequence (O75914 whole entry): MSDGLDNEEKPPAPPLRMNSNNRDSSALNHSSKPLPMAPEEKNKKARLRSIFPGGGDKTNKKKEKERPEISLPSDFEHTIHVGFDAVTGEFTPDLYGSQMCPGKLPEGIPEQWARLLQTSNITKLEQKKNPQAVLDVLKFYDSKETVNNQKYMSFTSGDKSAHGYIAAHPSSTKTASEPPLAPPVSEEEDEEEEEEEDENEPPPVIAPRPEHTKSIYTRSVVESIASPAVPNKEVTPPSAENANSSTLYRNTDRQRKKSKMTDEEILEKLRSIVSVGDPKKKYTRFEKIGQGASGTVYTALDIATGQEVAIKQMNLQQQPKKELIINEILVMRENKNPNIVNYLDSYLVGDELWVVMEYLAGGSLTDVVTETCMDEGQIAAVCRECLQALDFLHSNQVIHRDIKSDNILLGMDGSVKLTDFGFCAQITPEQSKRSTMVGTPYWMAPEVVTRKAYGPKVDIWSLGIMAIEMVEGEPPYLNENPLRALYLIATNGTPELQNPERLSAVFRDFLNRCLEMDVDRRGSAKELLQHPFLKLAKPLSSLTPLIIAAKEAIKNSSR
Procedure: as §1, §2, §3, §4, §5

PAK4 = PAK4 (Homo sapiens, UniProt O96013); assay: Z'Lyte fluorescence-based (FRET) kinase assay, PAK4; type: biochemical; conditions: 5 μM ATP (Km apparent), 1 hr room temperature
PAK4, sequence (O96013 whole entry): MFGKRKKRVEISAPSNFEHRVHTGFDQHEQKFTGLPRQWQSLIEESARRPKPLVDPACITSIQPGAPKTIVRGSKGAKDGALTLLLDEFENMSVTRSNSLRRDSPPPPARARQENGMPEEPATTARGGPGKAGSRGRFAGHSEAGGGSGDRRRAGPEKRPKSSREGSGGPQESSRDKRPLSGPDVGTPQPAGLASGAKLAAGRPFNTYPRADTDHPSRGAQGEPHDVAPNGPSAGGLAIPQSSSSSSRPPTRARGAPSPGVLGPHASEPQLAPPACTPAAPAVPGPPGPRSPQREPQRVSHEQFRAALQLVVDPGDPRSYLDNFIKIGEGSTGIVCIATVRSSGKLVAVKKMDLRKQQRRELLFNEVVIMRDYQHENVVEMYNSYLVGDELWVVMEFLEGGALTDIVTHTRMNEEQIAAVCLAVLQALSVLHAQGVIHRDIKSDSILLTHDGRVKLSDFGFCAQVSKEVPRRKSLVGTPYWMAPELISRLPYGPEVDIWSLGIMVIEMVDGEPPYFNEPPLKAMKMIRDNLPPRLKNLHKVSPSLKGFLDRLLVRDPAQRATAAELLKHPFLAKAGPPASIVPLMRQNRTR
Procedure: as §1, §2, §3, §4, §5

Compound | LTP compared to the baseline (fEPSP amplitude) [1] | IC50 (PAK1) [nM] | IC50 (PAK2) [nM] | IC50 (PAK3) [nM] | IC50 (PAK4) [µM]
CN1CCN(c2ccc(Nc3ncc4ccc(=O)n(C5CCCC5)c4n3)cc2)CC1 [Compound G, 8-cyclopentyl-2-(4-(4-methylpiperazin-1-yl)phenylamino)pyrido[2,3-d]pyrimidin-7(8H)-one] | increased LTP | – | – | – | –
CCOc1ccccc1Cn1c(=O)ccc2cnc(Nc3ccc(N4CCN(C)CC4)cc3)nc21 [Compound 62] | – | < 1000 | < 1000 | < 1000 | 1 to 10
COc1cc(Nc2nccc(-c3ccc(NCCN)nc3)n2)cc(OC)c1OC [Compound A] | increased LTP | – | – | – | –
